Calls of active or inactive are those of the source.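 How the source made its calls: active means CC50 of 24 µM or less, the dose killing half of Huh-7.5 liver cells, showing toxicity to them; inactive means no cytotoxicity, CC50 exceeds 24 µM.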
Tested on: Huh-7.5 viability, XTT absorbance
Experiment: Huh-7.5 cell viability reduction – absorbance, cytotoxicity control for HCV core dimerization inhibitor project, late-stage follow-up (AID 485280)

| SMILES | CC50 |
| --- | --- |
| CCN(CC(=O)Nc1c(F)cccc1F)C(=O)/C=C/c1ccc2ccccc2n1 | 148 µM (inactive) |
| COc1ccc(NC(=O)CN(C)C(=O)c2cc3c(s2)CCC3)cc1 | 123 µM (inactive) |
| O=C(/C=C/c1ccc(Br)o1)OCc1nc2ccsc2c(=O)[nH]1 | 163 µM (inactive) |
| Cc1ccccc1N1C(=O)/C(=C/c2ccco2)C(=O)NC1=S | 143 µM (inactive) |
| COCCN(C(=O)COC(=O)c1cc2c(s1)CCC2)c1c(N)n(Cc2ccccc2)c(=O)[nH]c1=O | 141 µM (inactive) |
| CCCCCC#CCC#CCC#CCC#CCCCC(=O)O | 179 µM (inactive) |
| Cc1ccc(Cc2c(C)nc3nc(SCC(=O)NCCCN4CCCCCC4)nn3c2C)cc1 | 27.4 µM (inactive) |
